Experiments:
[1] = test system: F2 of intercrosses between wheat selections FS1-FS4; assay: Genetic Condition Studies Experiment 5, allelism (Table 3); type: in vivo; conditions: 200 g/ha, after treatment
From the text: Experiment 5: Crosses and reciprocal crosses are made between the four mutant wheat selections. The F1 seed from these crosses is planted and the plants allowed to self. The F2 seed is harvested and used in this experiment to determine allelism of the four selections. Whole-flats are filled with Metro Mix 350™ and are sown with 100 seeds per cross (four rows with 25 seeds/row). In addition a row of susceptible Fidel is sown in each flat. Three sources from each cross are used. When the seedlings reach the Z12 stage, the flats are sprayed with PURSUIT™ at 200 g/ha. The PURSUIT™ solution is applied as previously described. […]

[2] = test system: wheat selections FS2 and FS4 and Fidel; assay: Postemergence Herbicide Tolerance, upper limits; type: in vivo; conditions: four weeks after treatment
From the text: In this second greenhouse test, the upper limits of the mutant selections' resistance to postemergent applications of PURSUIT™ and Compound 2 are examined. M4 seed of two of the mutant selections, FS2 and FS4, and seed of Fidel are used in this experiment. Five seeds from each line are planted per pot in sterile Metro Mix 350™ in six inch Azalea pots. Immediately prior to herbicide treatment, these plants are thinned to three plants per pot. Three replicates are used per treatment (chemical & rate) for each line, and six replicates per wheat line are used as untreated controls. The plants are sprayed postemergence, 10 days after planting, with the following herbicides and rates (g/ha):
The herbicides are applied as previously described. Plant height is measured immediately prior to spraying. Plant heights are also measured at two and four weeks after treatment, and shoot fresh weights measured at seven weeks after treatment.

## CCc1cnc(C2=NC(C)(C(C)C)C(=O)N2)c(C(=O)O)c1 (stereo not shown) [PURSUIT, 5-ethyl-2-(4-isopropyl-4-methyl-5-oxo-2-imidazolin-2-yl)-nicotinic acid]
[1]; F2 source (FS1/FS2)X-1
  Resist: number of plants resistant: 71
  Suscept: number of plants susceptible: 1
[1]; F2 source (FS1/FS2)X-2
  Resist: number of plants resistant: 85
  Suscept: number of plants susceptible: 2
[1]; F2 source (FS1/FS2)X-3
  Resist: number of plants resistant: 74
  Suscept: number of plants susceptible: 1
[1]; F2 source (FS1/FS3)X-1
  Resist: number of plants resistant: 82
  Suscept: number of plants susceptible: 0
[1]; F2 source (FS1/FS3)X-2
  Resist: number of plants resistant: 92
  Suscept: number of plants susceptible: 0
[1]; F2 source (FS1/FS3)X-3
  Resist: number of plants resistant: 93
  Suscept: number of plants susceptible: 0
[1]; F2 source (FS1/FS4)X-1
  Resist: number of plants resistant: 96
  Suscept: number of plants susceptible: 0
[1]; F2 source (FS1/FS4)X-2
  Resist: number of plants resistant: 90
  Suscept: number of plants susceptible: 0
[1]; F2 source (FS1/FS4)X-3
  Resist: number of plants resistant: 93
  Suscept: number of plants susceptible: 2
[1]; F2 source (FS2/FS1)X-1
  Resist: number of plants resistant: 95
  Suscept: number of plants susceptible: 0
[1]; F2 source (FS2/FS1)X-2
  Resist: number of plants resistant: 91
  Suscept: number of plants susceptible: 0
[1]; F2 source (FS2/FS1)X-3
  Resist: number of plants resistant: 97
  Suscept: number of plants susceptible: 0
[1]; F2 source (FS2/FS3)X-1
  Resist: number of plants resistant: 99
  Suscept: number of plants susceptible: 0
[1]; F2 source (FS2/FS3)X-2
  Resist: number of plants resistant: 87
  Suscept: number of plants susceptible: 1
[1]; F2 source (FS2/FS3)X-3
  Resist: number of plants resistant: 92
  Suscept: number of plants susceptible: 0
[1]; F2 source (FS2/FS4)X-1
  Resist: number of plants resistant: 102
  Suscept: number of plants susceptible: 0
[1]; F2 source (FS2/FS4)X-2
  Resist: number of plants resistant: 97
  Suscept: number of plants susceptible: 0
[1]; F2 source (FS2/FS4)X-3
  Resist: number of plants resistant: 97
  Suscept: number of plants susceptible: 1
[1]; F2 source (FS3/FS1)X-2
  Resist: number of plants resistant: 95
  Suscept: number of plants susceptible: 0
[1]; F2 source (FS3/FS1)X-3
  Resist: number of plants resistant: 97
  Suscept: number of plants susceptible: 0
[1]; F2 source (FS3/FS1)X-5
  Resist: number of plants resistant: 94
  Suscept: number of plants susceptible: 1
[1]; F2 source (FS3/FS2)X-1
  Resist: number of plants resistant: 96
  Suscept: number of plants susceptible: 0
[1]; F2 source (FS3/FS2)X-2
  Resist: number of plants resistant: 94
  Suscept: number of plants susceptible: 0
[1]; F2 source (FS3/FS2)X-3
  Resist: number of plants resistant: 96
  Suscept: number of plants susceptible: 0
[1]; F2 source (FS3/FS4)X-1
  Resist: number of plants resistant: 98
  Suscept: number of plants susceptible: 0
[1]; F2 source (FS3/FS4)X-2
  Resist: number of plants resistant: 96
  Suscept: number of plants susceptible: 0
[1]; F2 source (FS3/FS4)X-3
  Resist: number of plants resistant: 96
  Suscept: number of plants susceptible: 0
[1]; F2 source (FS4/FS1)X-1
  Resist: number of plants resistant: 93
  Suscept: number of plants susceptible: 1
[1]; F2 source (FS4/FS1)X-2
  Resist: number of plants resistant: 91
  Suscept: number of plants susceptible: 0
[1]; F2 source (FS4/FS1)X-3
  Resist: number of plants resistant: 94
  Suscept: number of plants susceptible: 1
[1]; F2 source (FS4/FS2)X-1
  Resist: number of plants resistant: 94
  Suscept: number of plants susceptible: 0
[1]; F2 source (FS4/FS2)X-2
  Resist: number of plants resistant: 95
  Suscept: number of plants susceptible: 1
[1]; F2 source (FS4/FS2)X-3
  Resist: number of plants resistant: 95
  Suscept: number of plants susceptible: 0
[1]; F2 source (FS4/FS3)X-1
  Resist: number of plants resistant: 96
  Suscept: number of plants susceptible: 0
[1]; F2 source (FS4/FS3)X-2
  Resist: number of plants resistant: 100
  Suscept: number of plants susceptible: 0
[1]; F2 source (FS4/FS3)X-3
  Resist: number of plants resistant: 94
  Suscept: number of plants susceptible: 0
[1]; Total of (FS1/FS2) sources
  Resist: number of plants resistant: 230
  Suscept: number of plants susceptible: 4
[1]; Total of (FS1/FS3) sources
  Resist: number of plants resistant: 267
  Suscept: number of plants susceptible: 0
[1]; Total of (FS1/FS4) sources
  Resist: number of plants resistant: 279
  Suscept: number of plants susceptible: 2
[1]; Total of (FS2/FS1) sources
  Resist: number of plants resistant: 283
  Suscept: number of plants susceptible: 0
[1]; Total of (FS2/FS3) sources
  Resist: number of plants resistant: 278
  Suscept: number of plants susceptible: 1
[1]; Total of (FS2/FS4) sources
  Resist: number of plants resistant: 296
  Suscept: number of plants susceptible: 1
[1]; Total of (FS3/FS1) sources
  Resist: number of plants resistant: 286
  Suscept: number of plants susceptible: 1
[1]; Total of (FS3/FS2) sources
  Resist: number of plants resistant: 286
  Suscept: number of plants susceptible: 0
[1]; Total of (FS3/FS4) sources
  Resist: number of plants resistant: 290
  Suscept: number of plants susceptible: 0
[1]; Total of (FS4/FS1) sources
  Resist: number of plants resistant: 278
  Suscept: number of plants susceptible: 2
[1]; Total of (FS4/FS2) sources
  Resist: number of plants resistant: 284
  Suscept: number of plants susceptible: 1
[1]; Total of (FS4/FS3) sources
  Resist: number of plants resistant: 290
  Suscept: number of plants susceptible: 0
[2]
  rates up to which FS2 and FS4 plant heights equal the untreated controls: 500-1000 g/ha

— patent US7034208B1, “Ahas inhibiting herbicide resistant wheat and method for selection thereof” (BASF Aktiengellschaft, priority 1991, dated 2006)
